Measurements: US12110527B2, “Production of symmetrical bolaform sophorosides” (priority 2018, dated 2024)

Tested on: S. bombicola Δcyp52M1Δfao1 strain
Assay: Shake flask cultivation fed with different primary fatty alcohols: follow-up of growth (CFU) and glucose consumption
Format: cell-based, Starmerella bombicola
Details: for glucose consumption rate: alcohol fed at 1.8 (w/v) % after 48 h of cultivation, shake flask
Method: Production experiments using S. bombicola were performed using the production medium described by Lang et al. (2000). For shake flask experiments, 5 ml tube cultures were set up 24 h (30° C.), before transferring to shake flasks (4% inoculation). Production experiments were executed with feeding of fatty alcohols: oleyl alcohol, stearyl alcohol, lauryl alcohol, myristyl alcohol or cetyl alcohol which were added after 48 h of cultivation. The Δcyp52M1Δfao1 strain was also assessed without addition of the hydrophobic alcohol. For every production experiment, cultivation was stopped when glucose was depleted from the medium. Experiments were performed in duplicate, and average values with standard deviations are presented.
Optical density (OD) of cultures was measured at 600 nm using the Jasco V 630 Bio spectrophotometer (Jasco Europe) of 1 mL samples diluted with physiological solution (9 g/L NaCl). The viability of yeast cells in cultivation experiments was assessed by determining colony forming units (CFUs) which were expressed as the average logarithm of CFUs per culture volume as log (CFU/mL) (Saerens et al., 2011). Alternatively, Cell Dry Weight (CDW) was determined by centrifuging 1 mL fermentation samples at 14000 rpm for 5 min in tared Eppendorf tubes, and subsequently washing the cell pellets twice with 1 mL physiological solution. The remaining cell pellet was put into a 70° C. oven for 5 days and then weighed afterwards. The CDW (g/L) was calculated after subtraction of the empty weight of the Eppendorf tube.
Glucose concentrations were determined using the 2700 Select Biochemistry Analyser (YSI Inc.) or using Ultra Performance Liquid Chromatography (Waters Acquity H-Class UPLC), coupled with an Evaporative Light Scattering Detector (Waters Acquity ELSD Detector) (UPLC-ELSD). For the UPLC analysis, an Acquity UPLC BEH Amide column (130 Å, 1.7 μm, 2.1×100 mm) (Waters) was used at 35° C. and an isocratic flow rate of 0.5 mL/min of 75% acetonitrile and 0.2% triethylamine (TEA) was applied (5 min/sample). For the ELS detection, the nebulizer was cooled to 15° C. and the drift tube was kept at a temperature of 50° C. […] To express glucose consumption, a linear curve was fitted through the obtained glucose concentrations by UPLC-ELSD, and the respective slope was taken and denoted as the glucose consumption rate (g/L·h).
When two different groups were compared, the Welch's test was performed with a 95% confidence level using GraphPad Prism 7.04 software. For multiple group comparisons, analysis of variance (ANOVA) with Bonferroni's multiple comparison test correction with a 95% confidence level using GraphPad Prism 7.04 software was employed. For parameters pH, CFU, OD and glucose consumption, average values were taken when the yeast cells attained their stationary phase (after 48 h of cultivation). In general, data represented in graphs are the average and standard deviation of two experimental replicates (unless stated otherwise).
Unexpectedly, no successful uniform production of either bola SSs or alkyl SSs was obtained for the Δcyp52M1Δfao1 strain when feeding with oleyl alcohol. Instead, mixtures of both were found, although the majority of the novel glycolipids were (acetylated) bola SSs and only minor amounts of alkyl SS were produced. The production of tetra-acetylated bola SS was unexpected, since the CYP52M1 enzyme was thought to be the only enzyme involved in glycolipid production thus far in S. bombicola. To assess the influence on the chain lengths of primary alcohols to the glycolipid production, different substrates were fed to the Δcyp52M1Δfao1 strain. The parental strain Δcyp52M1 was assessed in parallel. Medium and long-chain alcohols were selected between a chain length of 12 and 18, similarly as reported by Davila et al. (1994) for alkanes. Similarly as for the experiments described above, the hydrophobic substrate was added after 48 h of cultivation.

Structure (SMILES)	glucose consumption rate	glucose consumption after addition of the alcohol (addition 48 h after inoculation)	CFUs (log (CFU/mL)) (after addition of the alcohol, 1.8 (w/v) % added after 48 h of cultivation, in contrast to all other fed substrates (FIG. 8A))	glucose consumption rate after it initiated again (only Δcyp52M1Δfao1 strain, 100 h after substrate addition, until all glucose was depleted)
CCCCCCCCCCCCCCCCO [cetyl alcohol]	0.38 g/L·h	–	–	–
CCCCCCCCCCCCO [lauryl alcohol]	–	stopped	significant drop	0.33 g/L·h
CCCCCCCCCCCCCCO [myristyl alcohol]	0.48 g/L·h	–	–	–
CCCCCCCC/C=C\CCCCCCCCO [oleyl alcohol]	0.48 g/L·h	–	–	–
CCCCCCCCCCCCCCCCCCO [stearyl alcohol]	0.38 g/L·h	–	–	–
